Experimental data taken from ChEMBL document CHEMBL3352103, “Investigations of amide bond variation and biaryl modification in analogues of α7 nAChR agonist SEN12333” (Eur J Med Chem, 2014).
pEC50, pKi: −log10 of the molar value.

How the values were obtained:
[1] = target: T1, Neuronal acetylcholine receptor subunit alpha-7 (Rattus norvegicus, UniProt Q05941); assay: Agonist activity at rat nAChR alpha7 expressed in GH4C1 cells by fluorescent calcium assay; format: cell-based, GH4-C1; settings: for EC50: gh4-c1; for pEC50: read-out: EC50
[2] = target: Neuronal acetylcholine receptor; alpha4/beta2 (Rattus norvegicus, UniProt P09483+P12390); assay: Displacement of [3H]EB from rat nAChR alpha4beta2 expressed in HEK293 cell membranes by liquid scintillation counting; settings: for pKi: read-out: Ki; for Ki: hek293
[3] = target: T1, Neuronal acetylcholine receptor subunit alpha-7; assay: Displacement of [3H]EB from rat nAChR alpha7 expressed in HEK293 cell membranes by liquid scintillation counting
[4] = target: Neuronal acetylcholine receptor; alpha3/beta4 (Rattus norvegicus, UniProt P04757+P12392); assay: Displacement of [3H]EB from rat nAChR alpha3beta4 expressed in HEK293 cell membranes by liquid scintillation counting; settings: for pKi: read-out: Ki
Chain of Neuronal acetylcholine receptor; alpha3/beta4 (P04757 whole entry): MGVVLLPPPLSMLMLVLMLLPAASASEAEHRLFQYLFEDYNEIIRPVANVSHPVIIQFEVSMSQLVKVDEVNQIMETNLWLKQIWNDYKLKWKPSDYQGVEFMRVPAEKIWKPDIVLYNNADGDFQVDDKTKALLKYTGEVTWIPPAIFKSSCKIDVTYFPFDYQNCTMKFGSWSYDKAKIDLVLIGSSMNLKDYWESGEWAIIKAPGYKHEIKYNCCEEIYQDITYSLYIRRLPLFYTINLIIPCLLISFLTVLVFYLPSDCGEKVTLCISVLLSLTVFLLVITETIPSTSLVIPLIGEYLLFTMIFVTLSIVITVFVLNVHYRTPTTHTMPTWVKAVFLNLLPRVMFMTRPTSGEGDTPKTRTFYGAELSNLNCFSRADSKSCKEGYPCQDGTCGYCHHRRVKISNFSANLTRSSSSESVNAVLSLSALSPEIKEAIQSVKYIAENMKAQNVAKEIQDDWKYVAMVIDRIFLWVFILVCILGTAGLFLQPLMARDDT
Chain of Neuronal acetylcholine receptor; alpha3/beta4 (P12392 whole entry): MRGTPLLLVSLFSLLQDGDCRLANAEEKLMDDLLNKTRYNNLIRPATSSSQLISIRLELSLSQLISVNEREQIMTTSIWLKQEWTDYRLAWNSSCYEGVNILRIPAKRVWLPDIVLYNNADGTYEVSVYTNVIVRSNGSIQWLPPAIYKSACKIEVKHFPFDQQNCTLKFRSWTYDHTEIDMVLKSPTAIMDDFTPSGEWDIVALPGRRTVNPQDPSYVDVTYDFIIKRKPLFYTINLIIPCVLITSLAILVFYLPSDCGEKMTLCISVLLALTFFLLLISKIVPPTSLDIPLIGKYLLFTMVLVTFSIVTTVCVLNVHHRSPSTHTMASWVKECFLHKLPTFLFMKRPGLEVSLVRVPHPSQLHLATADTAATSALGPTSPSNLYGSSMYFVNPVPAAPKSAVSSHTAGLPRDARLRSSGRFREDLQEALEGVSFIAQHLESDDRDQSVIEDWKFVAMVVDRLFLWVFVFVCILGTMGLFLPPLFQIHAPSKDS

Chain of Neuronal acetylcholine receptor; alpha4/beta2 (P09483 whole entry): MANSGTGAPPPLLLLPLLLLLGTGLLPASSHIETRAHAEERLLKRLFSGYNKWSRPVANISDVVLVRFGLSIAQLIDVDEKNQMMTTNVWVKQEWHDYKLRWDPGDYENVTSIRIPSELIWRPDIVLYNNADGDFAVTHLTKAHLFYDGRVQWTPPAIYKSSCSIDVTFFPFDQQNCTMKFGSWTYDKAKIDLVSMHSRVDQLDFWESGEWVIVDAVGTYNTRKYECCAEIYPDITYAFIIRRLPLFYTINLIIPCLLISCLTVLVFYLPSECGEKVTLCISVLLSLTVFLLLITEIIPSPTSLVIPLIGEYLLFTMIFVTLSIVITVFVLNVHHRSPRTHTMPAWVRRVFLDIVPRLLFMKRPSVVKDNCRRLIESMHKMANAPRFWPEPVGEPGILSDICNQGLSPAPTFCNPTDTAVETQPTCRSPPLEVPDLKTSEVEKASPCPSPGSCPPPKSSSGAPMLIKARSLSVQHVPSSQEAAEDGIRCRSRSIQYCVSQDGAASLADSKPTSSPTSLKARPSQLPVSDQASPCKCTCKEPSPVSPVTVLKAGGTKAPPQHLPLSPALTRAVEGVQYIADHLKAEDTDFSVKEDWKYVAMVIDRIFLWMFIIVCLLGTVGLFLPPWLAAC
Chain of Neuronal acetylcholine receptor; alpha4/beta2 (P12390 whole entry): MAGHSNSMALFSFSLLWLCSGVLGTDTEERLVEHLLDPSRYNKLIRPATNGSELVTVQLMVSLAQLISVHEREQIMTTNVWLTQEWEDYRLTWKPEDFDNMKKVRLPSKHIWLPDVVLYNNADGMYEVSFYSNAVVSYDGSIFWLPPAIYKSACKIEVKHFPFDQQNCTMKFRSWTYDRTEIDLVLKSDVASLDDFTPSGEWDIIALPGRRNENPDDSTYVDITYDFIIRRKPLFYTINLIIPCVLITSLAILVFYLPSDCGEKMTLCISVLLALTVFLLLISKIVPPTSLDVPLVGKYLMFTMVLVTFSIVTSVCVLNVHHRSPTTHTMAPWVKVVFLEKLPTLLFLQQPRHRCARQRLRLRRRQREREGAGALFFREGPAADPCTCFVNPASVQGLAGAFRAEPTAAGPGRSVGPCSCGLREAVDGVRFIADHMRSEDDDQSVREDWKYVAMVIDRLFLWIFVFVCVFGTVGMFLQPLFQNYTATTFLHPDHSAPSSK
T1 sequence (Q05941 whole entry): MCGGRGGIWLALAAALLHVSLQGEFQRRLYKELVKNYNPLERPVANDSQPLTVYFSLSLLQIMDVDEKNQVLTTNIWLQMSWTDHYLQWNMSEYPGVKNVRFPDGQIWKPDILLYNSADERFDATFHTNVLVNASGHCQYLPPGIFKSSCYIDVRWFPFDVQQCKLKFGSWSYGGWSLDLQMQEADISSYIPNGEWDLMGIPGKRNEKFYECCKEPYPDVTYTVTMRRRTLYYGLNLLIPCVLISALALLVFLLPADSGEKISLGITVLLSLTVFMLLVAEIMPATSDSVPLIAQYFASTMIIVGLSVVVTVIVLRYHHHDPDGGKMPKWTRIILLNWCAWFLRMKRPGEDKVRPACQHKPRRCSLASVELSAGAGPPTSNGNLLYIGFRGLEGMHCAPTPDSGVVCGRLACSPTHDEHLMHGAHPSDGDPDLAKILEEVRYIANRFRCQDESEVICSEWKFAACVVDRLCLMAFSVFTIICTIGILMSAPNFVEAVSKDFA

Structure (SMILES)	EC50 [1]	pKi [2]	pKi [3]	pKi [4]	Ki [2]	pEC50 [1]	Ki ([4]; hek293)
c1ccc(-c2ccc(-c3nnnn3CCCCN3CCOCC3)cc2)cc1	Not Active		3.81	< 4.00	Not Active		
c1ccc(-c2ccc(-n3nnnc3CCCCN3CCOCC3)cc2)cc1	Not Active		3.63	< 3.00	Not Active		
c1cncc(-c2ccc(-n3nnnc3CCCCN3CCOCC3)cc2)c1	Not Active		3.67		Not Active		Not Active
c1cncc(-c2ccc(-c3nnnn3CCCCN3CCOCC3)cc2)c1	Not Active		3.78	< 3.00	Not Active		

The next compounds have a higher pKi [3] than those just listed; values first:

EC50 [1]	pKi [2]	pKi [3]	pKi [4]	Ki [2]	pEC50 [1]	Ki ([4]; hek293)	Structure (SMILES)
Not Active	< 5.00	4.96	< 5.00				O=C(NCCCCN1CCOCC1)c1ccc(-c2cccnc2)cc1
	< 5.00	6.17	< 5.00		6.07		O=C(CCCCN1CCOCC1)Nc1ccc(-c2cccnc2)cc1
	< 5.00	5.74	< 5.00		5.62		O=C(NCCCCN1CCOCC1)c1ccc(-c2ccccc2)cc1
	< 5.00	5.64	< 5.00		5.76		O=C(CCCCN1CCOCC1)Nc1ccc(-c2ccccc2)cc1
